The values that follow are results of earlier work, collected in patent US8546362B2, “Medicinal cream made using neomycin sulphate, betamethasone valerate, and chitosan, and a process to make the same” (priority 2009, dated 2013).

For one data set, the system named is Escherichia coli. To be noted: in vitro.
A further data set relates to Haemophilus influenzae. To be noted: in vitro.
Another data set has as its system Moraxella lacunata. To be noted: in vitro.
The subject of data set [1] is indole-positive and indole-negative Proteus. Conditions: in vitro.
Another data set relates to Staphylococcus aureus. Conditions: in vitro.
A further data set concerns S. epidermidis. Conditions: in vitro.
The test system of a further data set is Serratia. To be noted: in vitro.
The conditions of data set [2]: from the peritoneum, draining sinuses, wounds, or surgical sites.

Molecules are shown by their SMILES. Like-named read-outs stand apart in the source and are kept apart here.

As for `NC[C@@H]1O[C@H](O[C@H]2[C@@H](O)[C@H](O[C@@H]3[C@@H](O)[C@H](N)C[C@H](N)[C@H]3O[C@H]3O[C@H](CN)[C@@H](O)[C@H](O)[C@H]3N)O[C@@H]2CO)[C@H](N)[C@@H](O)[C@@H]1O` [Neomycin], the “Concentrations that inhibit most susceptible strains” value (in the data set with Escherichia coli; in the data set with Haemophilus influenzae; with Moraxella lacunata; in [1]; in the data set on Staphylococcus aureus; in the data set on S. epidermidis) was 1 to 12.5 µg/mL each time. Also, in the data set on Serratia, the “Concentrations that inhibit most susceptible strains” value was 1 to 12.5 µg/mL. Besides, the Antibacterial activity result is given as “only minimally active” with streptococci and “generally resistant” with Pseudomonas aeruginosa. For the same molecule, the Antimicrobial activity entry in the data set on fungi, with viruses and with most anaerobic bacteria was “inactive” each time. For the same molecule, the Solubility entry is, setting by setting: (in alcohol) “very slightly soluble”; (in water) “freely soluble”. The Absorption entry in data set [2] is “rapidly absorbed”.
For the molecule `CCCCC(=O)O[C@]1(C(=O)CO)[C@@H](C)C[C@H]2[C@@H]3CCC4=CC(=O)C=C[C@]4(C)[C@@]3(F)[C@@H](O)C[C@@]21C` [Betamethasone Valerate, 9-Fluoro-11β, 17,21-trihydroxy-16β-methylpregna-1,4-diene-3,20-dione 17-valerate], the Solubility entry reads like this: (in acetone) “freely soluble”; (in alcohol) “soluble”; (in benzene) “slightly soluble”; (in chloroform) “freely soluble”; (in ether) “slightly soluble”; (in water) “practically insoluble”.
